Consider 15 compounds from US20220235064A1 (WELLMARKER BIO CO., LTD., priority 2019, published 2022).

The term IC50 denotes the concentration at which inhibition is half-maximal.

One assay addresses T1, RON tyrosine kinase (Homo sapiens, UniProt Q04912).
T1 construct: purchased Carna Bioscience
The assay can be described thus: Enzyme inhibitory activity against RON tyrosine kinase (TR-FRET). To be noted: RON (Carna Bioscience). In kind it is biochemical. The method, then:
Experimental Example 1: Measurement of Enzyme Inhibitory Activity Against RON Tyrosine Kinase
To measure enzyme inhibitory activity of the example compounds against RON, IC50 values of the compounds were measured using fluorescence resonance energy transfer (FRET).
Specifically, first, RON (Carna Bioscience) was diluted in a kinase assay buffer (50 mM HEPES pH 7.5, 1 mM EGTA, 10 mM MgCl2, 2 mM DTT, and 0.01% Tween-20) to be at a concentration (0.4 nM) that is twice the final reaction concentration. The dilute was added to a 384-well-plate at 5 μl per well. Each of the example compounds was prepared at a concentration of 1 mM in 100% DMSO and diluted 8 times in a stepwise manner through 10-fold dilution. Each compound was diluted in a kinase assay buffer to be at a concentration that is 4 times the final reaction concentration. The dilute was added to a 384-well-plate at 2.5 μl per well, and incubation was performed at room temperature for 15 minutes.
Thereafter, an ATP solution (Sigma Aldrich) prepared at a concentration of 0.25 M was diluted in a kinase assay buffer to be at a concentration (60 μM) that is 4 times the final reaction concentration. Dilution of a tyrosine peptide substrate (Perkin-Elmer) was performed therein to be at a concentration (400 nM) that is 4 times the final reaction concentration. The dilute was added to a 384-well-plate at 2.5 µl per well. Reaction was allowed to proceed for 60 minutes by incubating the 384-well-plate at room temperature. Thereafter, EDTA (Sigma Aldrich) was diluted in a TR-FRET detection buffer (Perkin-Elmer) to be at a concentration (20 mM) that is twice the final reaction concentration. Dilution of a Europium-containing phosphotyrosine antibody (Perkin-Elmer) was performed in the diluted EDTA solution to be at a concentration (4 nM) that is twice the final reaction concentration, so that a stop solution for RON reaction was prepared.
The stop solution was added to the 384-well-plate at 10 μl per well to quench the reaction, and incubation was performed at room temperature for 60 minutes. Then, the 384-well-plate was read on a Victor X5 (Perkin-Elmer) plate reader. Here, the excitation wavelength was 340 nm, and the emission wavelengths were 620 nm and 665 nm. An IC50 value of the compound was derived using GraphPad Prism 5 program, in which the IC50 was derived by expressing emission energy at the wavelength of 665 nm as a function of the compound concentration.
In general terms: Time-resolved FRET reads energy transfer from a long-lived donor to a nearby acceptor.

Assay [1] relates to cancer cell line KM12C, in which RON is activated. The assay can be described thus: Cell growth inhibitory ability in RON-activated cancer cell line (MTS). The settings on record: Homo sapiens, 48 hours, absorbance 490 nm. The assay is classed as cell-based. How it is done:
Experimental Example 2: Identification of Cell Growth Inhibitory Ability of Example Compounds in RON-Activated Cancer Cell Line
The cancer cell line KM12C (80015, KCLB, MEM+1K° FBS), in which RON is activated, was treated with each of the example compounds at a concentration of 10 μM, and then reaction was allowed to proceed for 48 hours. 24 hours after completion of the reaction, 20 μl of MTS solution (CellTiter 96 Aqueous One Solution Cell Proliferation Assay, product number: G3581, Promega) was added to each well, and then incubation was performed at a temperature of 37° C. in 50 CO2 incubator for 4 hours. Then, an IC50 value of the compound was derived by measuring its absorbance value at a wavelength of 490 nm using a Victor X5 plate reader. Here, as a positive control, N-(4-(2-amino-3-chloropyridin-4-yloxy)-3-fluorophenyl)-4-ethoxy-1-(4-fluorophenyl)-2-oxo-1,2-dihydropyridine-3-carboxamide, which is the compound of Example 1 in WO 2008/058229 A1, was used.

For assay [2] the test system is unchanged. Description: Cell-killing efficacy in RON-activated cancer cell line (trypan blue). The settings on record: Homo sapiens, 48 hours, trypan blue, n=2, read-out: Cell death (%) Cancer cell line KM12C. In kind it is cell-based. The method, then: Experimental Example 3: Measurement of Cell-Killing Efficacy of Example Compounds in RON-Activated Cancer Cell Line
The cancer cell line KM12C (80015, KCLB, MEM+10% FBS), in which RON is activated, was dispensed into each 60 mm^2 dish at 1×10^5 cells. After 24 hours, the dish was treated with each of the example compounds at a concentration of 1 μM or 5 μM while performing medium exchange, and then reaction was allowed to proceed for 48 hours. After 48 hours, centrifugation was performed for 4 minutes at 1,500 rpm to collect cells and cell fluid. Thereafter, living cells and dead cells were quantified (n=2) using a trypan blue solution (15250-061, Gibco), and statistical analysis was performed using Excel-T-test. Here, as a negative control, only a solvent (0.100 DMSO) was used; and as a positive control, N-(4-(2-amino-3-chloropyridin-4-yloxy)-3-fluorophenyl)-4-ethoxy-1-(4-fluorophenyl)-2-oxo-1,2-dihydropyridine-3-carboxamide, which is the compound of Example 1 in WO 2008/058229 A1, was used.

T1 sequence (Q04912 25-1400): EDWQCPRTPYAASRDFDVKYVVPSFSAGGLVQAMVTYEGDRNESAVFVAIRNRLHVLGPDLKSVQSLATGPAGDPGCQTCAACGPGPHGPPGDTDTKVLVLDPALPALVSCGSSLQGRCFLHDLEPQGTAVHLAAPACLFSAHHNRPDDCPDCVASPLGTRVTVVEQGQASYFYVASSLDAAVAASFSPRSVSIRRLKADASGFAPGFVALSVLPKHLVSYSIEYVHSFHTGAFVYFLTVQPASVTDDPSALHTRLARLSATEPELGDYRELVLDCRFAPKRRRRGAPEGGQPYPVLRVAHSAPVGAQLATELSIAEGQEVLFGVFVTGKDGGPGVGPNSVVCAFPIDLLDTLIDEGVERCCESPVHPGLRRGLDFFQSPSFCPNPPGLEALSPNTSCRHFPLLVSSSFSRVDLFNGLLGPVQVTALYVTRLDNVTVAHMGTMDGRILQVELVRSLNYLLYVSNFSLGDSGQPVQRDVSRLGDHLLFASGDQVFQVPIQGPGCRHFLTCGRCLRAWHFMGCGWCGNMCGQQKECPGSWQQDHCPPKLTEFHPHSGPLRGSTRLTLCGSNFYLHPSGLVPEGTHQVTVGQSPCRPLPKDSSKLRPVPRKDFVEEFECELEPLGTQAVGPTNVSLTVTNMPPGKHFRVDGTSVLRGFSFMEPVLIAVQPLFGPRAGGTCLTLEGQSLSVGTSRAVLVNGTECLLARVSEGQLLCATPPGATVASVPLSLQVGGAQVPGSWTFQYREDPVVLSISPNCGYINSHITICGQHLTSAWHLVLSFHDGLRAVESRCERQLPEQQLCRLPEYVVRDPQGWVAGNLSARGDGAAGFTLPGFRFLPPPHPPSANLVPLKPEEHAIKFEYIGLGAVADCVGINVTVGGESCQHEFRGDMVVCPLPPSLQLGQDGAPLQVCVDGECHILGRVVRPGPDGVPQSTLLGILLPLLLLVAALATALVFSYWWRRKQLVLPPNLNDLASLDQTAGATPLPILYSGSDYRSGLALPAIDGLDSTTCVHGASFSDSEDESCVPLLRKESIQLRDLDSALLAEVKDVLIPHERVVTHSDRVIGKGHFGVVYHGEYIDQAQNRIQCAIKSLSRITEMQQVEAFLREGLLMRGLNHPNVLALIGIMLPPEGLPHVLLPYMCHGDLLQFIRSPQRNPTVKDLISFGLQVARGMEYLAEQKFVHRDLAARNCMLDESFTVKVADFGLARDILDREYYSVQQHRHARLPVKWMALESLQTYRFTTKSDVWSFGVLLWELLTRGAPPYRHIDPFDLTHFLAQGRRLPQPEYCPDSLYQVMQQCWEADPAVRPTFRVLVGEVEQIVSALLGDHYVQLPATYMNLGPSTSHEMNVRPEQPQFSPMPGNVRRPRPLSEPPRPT

As to `O=C(Nc1ccc(Oc2ccnc(NCCCN3CCOCC3)c2Cl)c(F)c1)c1c2c(cn(-c3ccc(F)cc3)c1=O)CCO2` [Example 62, N-(4-((3-Chloro-2-((3-morpholinopropyl)amino)pyridin-4-yl)oxy)-3-fluorophenyl)-5-(4-fluorophenyl)-6-oxo-2,3,5,6-tetrahydrofuro[3,2-c]pyridine-7-carboxamide], the IC50 against RON tyrosine kinase worked out at 12.3 nM; in assay [1], 1670 nM.

In the case of `COc1cc2nccc(Oc3ccc(NC(=O)c4c5c(cn(-c6ccc(F)cc6)c4=O)CCO5)cc3F)c2cc1N` [Example 179, N-(4-((6-Amino-7-methoxyquinolin-4-yl)oxy)-3-fluorophenyl)-5-(4-fluorophenyl)-6-oxo-2,3,5,6-tetrahydrofuro[3,2-c]pyridine-7-carboxamide], the IC50 came to 0.47 nM against RON tyrosine kinase and 3 nM in assay [1].

As to `CCNC(=O)c1cc2c(Oc3ccc(NC(=O)c4c5c(cn(-c6ccc(F)cc6)c4=O)CCO5)cc3F)ccnc2cc1OC` [Example 51, N-(4-((6-(Ethylcarbamoyl)-7-methoxyquinolin-4-yl)oxy)-3-fluorophenyl)-5-(4-fluorophenyl)-6-oxo-2,3,5,6-tetrahydrofuro[3,2-c]pyridine-7-carboxamide], the results for the IC50 (on RON tyrosine kinase; in assay [1]) were 0.55 nM and 2 nM, respectively.

Take `O=C(Nc1ccc(Oc2ccnc3ccc(OCCN4CCOCC4)cc23)c(F)c1)c1c2c(cn(-c3ccc(F)cc3)c1=O)CCO2` [Example 177, N-(3-Fluoro-4-((6-(2-morpholinoethoxy)quinolin-4-yl)oxy)phenyl)-5-(4-fluorophenyl)-6-oxo-2,3,5,6-tetrahydrofuro[3,2-c]pyridine-7-carboxamide]: the results for the IC50 (against RON tyrosine kinase; in assay [1]) were 0.83 nM and 6 nM, respectively.

Regarding `CNC(=O)c1cc2c(Oc3ccc(NC(=O)c4c5c(cn(-c6ccc(F)cc6)c4=O)CCO5)cc3F)ccnc2cc1OCCN1CCOCC1` [Example 163, N-(3-Fluoro-4-((6-(methylcarbamoyl)-7-(2-morpholinoethoxy)quinolin-4-yl)oxy)phenyl)-5-(4-fluorophenyl)-6-oxo-2,3,5,6-tetrahydrofuro[3,2-c]pyridine-7-carboxamide], the concentration for half-maximal inhibition (IC50) was 0.1 nM against RON tyrosine kinase and 2 nM in assay [1].

Regarding `O=C(Nc1ccc(Oc2ccnc3cc(OCCN4CCOCC4)c(F)cc23)c(F)c1)c1c2c(cn(-c3ccc(F)cc3)c1=O)CCO2` [Example 167, N-(3-Fluoro-4-((6-fluoro-7-(2-morpholinoethoxy)quinolin-4-yl)oxy)phenyl)-5-(4-fluorophenyl)-6-oxo-2,3,5,6-tetrahydrofuro[3,2-c]pyridine-7-carboxamide], the half-maximal inhibitory concentration (IC50) came to 0.83 nM against RON tyrosine kinase and 6 nM in assay [1].

`COc1cc2nccc(Oc3ccc(NC(=O)c4c5c(cn(-c6ccc(F)cc6)c4=O)CCO5)cc3F)c2cc1NCCCN1CCOCC1` [Example 186, N-(3-Fluoro-4-((7-methoxy-6-((3-morpholinopropyl)amino)quinolin-4-yl)oxy)phenyl)-5-(4-fluorophenyl)-6-oxo-2,3,5,6-tetrahydrofuro[3,2-c]pyridine-7-carboxamide]: the IC50 is 7.52 nM on RON tyrosine kinase and 3 nM in assay [1].

As to `N#Cc1cc2c(Oc3ccc(NC(=O)c4c5c(cn(-c6ccc(F)cc6)c4=O)CCO5)cc3F)ccnc2cc1OCCCN1CCOCC1` [Example 174, N-(4-((6-Cyano-7-(3-morpholinopropoxy)quinolin-4-yl)oxy)-3-fluorophenyl)-5-(4-fluorophenyl)-6-oxo-2,3,5,6-tetrahydrofuro[3,2-c]pyridine-7-carboxamide], the results for the IC50 (against RON tyrosine kinase; in assay [1]) were 1.61 nM and 4 nM, respectively.

On to `O=C(Nc1ccc(Oc2ncnc3[nH]ncc23)c(F)c1)c1c2c(cn(-c3ccc(F)cc3)c1=O)CCO2` [Example 73, N-(4-((1H-pyrazolo[3,4-d]pyrimidin-4-yl)oxy)-3-fluorophenyl)-5-(4-fluorophenyl)-6-oxo-2,3,5,6-tetrahydrofuro[3,2-c]pyridine-7-carboxamide], for which the IC50 against RON tyrosine kinase was 17.5 nM; in assay [1], 8 nM.

On to `O=C(Nc1ccc(Oc2ncnc3[nH]ccc23)c(F)c1)c1c2c(cn(-c3ccc(F)cc3)c1=O)CCO2` [Example 71, N-(4-((7H-pyrrolo[2,3-d]pyrimidin-4-yl)oxy)-3-fluorophenyl)-5-(4-fluorophenyl)-6-oxo-2,3,5,6-tetrahydrofuro[3,2-c]pyridine-7-carboxamide], for which the IC50 amounted to 8.24 nM against RON tyrosine kinase and 11 nM in assay [1].

Turning to `O=C(Nc1ccc(Oc2ccnc3cc(OCCCN4CCOCC4)c(F)cc23)c(F)c1)c1c2c(cn(-c3ccc(F)cc3)c1=O)CCO2` [Example 168, N-(3-Fluoro-4-((6-fluoro-7-(3-morpholinopropoxy)quinolin-4-yl)oxy)phenyl)-5-(4-fluorophenyl)-6-oxo-2,3,5,6-tetrahydrofuro[3,2-c]pyridine-7-carboxamide], the values for the half-inhibitory concentration (IC50) (on RON tyrosine kinase; in assay [1]) were 0.45 nM and 25 nM, respectively.

For `COc1cc2nccc(Oc3ccc(NC(=O)c4c5c(cn(-c6ccc(F)cc6)c4=O)CCO5)cc3F)c2cc1OCCN1CCOCC1` [Example 175, N-(3-Fluoro-4-((7-methoxy-6-(2-morpholinoethoxy)quinolin-4-yl)oxy)phenyl)-5-(4-fluorophenyl)-6-oxo-2,3,5,6-tetrahydrofuro[3,2-c]pyridine-7-carboxamide], the concentration for half-maximal inhibition (IC50) on RON tyrosine kinase was determined as 1.24 nM; in assay [1], 2 nM.

Regarding `O=C(Nc1ccc(Oc2ccnc3cc(OCCN4CCOCC4)c(Cl)cc23)c(F)c1)c1c2c(cn(-c3ccc(F)cc3)c1=O)CCO2` [Example 171, N-(4-((6-Chloro-7-(2-morpholinoethoxy)quinolin-4-yl)oxy)-3-fluorophenyl)-5-(4-fluorophenyl)-6-oxo-2,3,5,6-tetrahydrofuro[3,2-c]pyridine-7-carboxamide], the IC50 was 7.13 nM against RON tyrosine kinase and 8 nM in assay [1].

In the case of `COc1cc2c(Oc3ccc(NC(=O)c4c5c(cn(-c6ccc(F)cc6)c4=O)CCC5)cc3F)ccnc2cc1OCCCN1CCOCC1` [Example 77, N-(3-Fluoro-4-((6-methoxy-7-(3-morpholinopropoxy)quinolin-4-yl)oxy)phenyl)-2-(4-fluorophenyl)-3-oxo-3,5,6,7-tetrahydro-2H-cyclopenta[c]pyridine-4-carboxamide], the concentration for half-maximal inhibition (IC50) against RON tyrosine kinase was found to be 9.32 nM; in assay [1] it was 10 nM.

Consider `COc1cc2c(Oc3ccc(NC(=O)c4c5c(cn(-c6ccc(F)cc6)c4=O)CCO5)cc3F)ccnc2cc1OCCN1CCC(C)(O)CC1` [Example 137, N-(3-Fluoro-4-((7-(2-(4-hydroxy-4-methylpiperidin-1-yl)ethoxy)-6-methoxyquinoline-4-yl)oxy)phenyl)-5-(4-fluorophenyl)-6-oxo-2,3,5,6-tetrahydrofuro[3,2-c]pyridine-7-carboxamide], for which, in assay [1], the IC50 was 2 nM. In addition, the cytotoxicity at 1 µM in assay [2] (1 μM) came out at 18.2%. Besides, the cytotoxicity at 5 µM in assay [2] (5 μM) was 22.4%.
